Results from PubChem BioAssay AID256 (DTP/NCI, 2004).
“And” between values parts separate entries of the source, which are not always exact repeats. Identical values can stand only once. Toxic doses and inconclusive results are not listed. Rule for the calls: active = survival T/C of 150% or more; inactive = T/C below 125% in these data.

System: CD2F1 mice, L1210 leukemia ip, survival T/C
Assay: NCI In Vivo Anticancer Drug Screen. Data for tumor model L1210 Leukemia (intraperitoneal) in CD2F1 (CDF1) mice
Details: higher = longer survival
Summary of the method: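 Transplantable tumor in mice; compound-treated vs vehicle-treated groups. Read-out = treated/control ratio of the measured endpoint.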

[1] = endpoint: mean survival time, dose: 25.0 mg/kg/injection, schedule: Q01DX009 (ip), vehicle: saline with Tween-80
[2] = endpoint: mean survival time, dose: 50.0 mg/kg/injection, schedule: Q01DX009 (ip), vehicle: saline with Tween-80
[3] = endpoint: mean survival time, dose: 100.0 mg/kg/injection, schedule: Q01DX009 (ip), vehicle: saline with Tween-80
[4] = endpoint: mean survival time, dose: 400.0 mg/kg/injection, schedule: Q01DX009 (ip), vehicle: saline with Tween-80
[5] = endpoint: mean survival time, dose: 100.0 mg/kg/injection, schedule: Q04DX003 (ip), vehicle: saline with Tween-80
[6] = endpoint: mean survival time, dose: 200.0 mg/kg/injection, schedule: Q01DX009 (ip), vehicle: saline with Tween-80
[7] = endpoint: mean survival time, dose: 200.0 mg/kg/injection, schedule: Q04DX003 (ip), vehicle: saline with Tween-80
[8] = endpoint: mean survival time, dose: 400.0 mg/kg/injection, schedule: Q04DX003 (ip), vehicle: saline with Tween-80

Measured: T/C

CN(N=O)C(=O)N[C@@H](C=O)[C@@H](O)[C@H](O)[C@H](O)CO
inactive: endpoint: mean survival time, dose: 12.5 mg/kg/injection, schedule: Q01DX005 (ip), vehicle: other 104 % of control | endpoint: mean survival time, dose: 19.6 mg/kg/injection, schedule: Q01DX009 (ip), vehicle: other 104 % of control | endpoint: mean survival time, dose: 25.0 mg/kg/injection, schedule: Q01DX001 (ip), vehicle: other 102 % of control and 103 % of control | endpoint: mean survival time, dose: 25.0 mg/kg/injection, schedule: Q01DX005 (ip), vehicle: other 112 % of control | endpoint: mean survival time, dose: 25.0 mg/kg/injection, schedule: Q04DX003 (ip), vehicle: other 102 % of control | endpoint: mean survival time, dose: 29.3 mg/kg/injection, schedule: Q01DX009 (ip), vehicle: other 107 % of control | endpoint: mean survival time, dose: 32.0 mg/kg/injection, schedule: Q03HX008 (ip), vehicle: other 98 % of control | endpoint: mean survival time, dose: 32.0 mg/kg/injection, schedule: Q03HX016 (ip), vehicle: other 98 % of control | endpoint: mean survival time, dose: 37.5 mg/kg/injection, schedule: Q01DX001 (ip), vehicle: other 107 % of control | endpoint: mean survival time, dose: 44.0 mg/kg/injection, schedule: Q01DX009 (ip), vehicle: other 117 % of control | endpoint: mean survival time, dose: 50.0 mg/kg/injection, schedule: Q01DX001 (ip), vehicle: other 94 % of control and 105 % of control | endpoint: mean survival time, dose: 50.0 mg/kg/injection, schedule: Q01DX005 (ip), vehicle: other 117 % of control | endpoint: mean survival time, dose: 50.0 mg/kg/injection, schedule: Q04DX003 (ip), vehicle: other 106 % of control | endpoint: mean survival time, dose: 64.0 mg/kg/injection, schedule: Q03HX008 (ip), vehicle: other 96 % of control | endpoint: mean survival time, dose: 64.0 mg/kg/injection, schedule: Q03HX016 (ip), vehicle: other 95 % of control | endpoint: mean survival time, dose: 75.0 mg/kg/injection, schedule: Q01DX001 (ip), vehicle: other 98 % of control | endpoint: mean survival time, dose: 100.0 mg/kg/injection, schedule: Q01DX001 (ip), vehicle: other 113 % of control and 103 % of control | endpoint: mean survival time, dose: 100.0 mg/kg/injection, schedule: Q01DX005 (ip), vehicle: other 116 % of control | endpoint: mean survival time, dose: 100.0 mg/kg/injection, schedule: Q01DX009 (ip), vehicle: saline 111 % of control | endpoint: mean survival time, dose: 100.0 mg/kg/injection, schedule: Q04DX003 (ip), vehicle: other 109 % of control | endpoint: mean survival time, dose: 128.0 mg/kg/injection, schedule: Q03HX008 (ip), vehicle: other 102 % of control | endpoint: mean survival time, dose: 128.0 mg/kg/injection, schedule: Q03HX016 (ip), vehicle: other 108 % of control | endpoint: mean survival time, dose: 150.0 mg/kg/injection, schedule: Q01DX001 (ip), vehicle: other 104 % of control | endpoint: mean survival time, dose: 200.0 mg/kg/injection, schedule: Q01DX001 (ip), vehicle: other 118 % of control and 124 % of control and 106 % of control | endpoint: mean survival time, dose: 200.0 mg/kg/injection, schedule: Q01DX009 (ip), vehicle: saline 103 % of control | endpoint: mean survival time, dose: 200.0 mg/kg/injection, schedule: Q04DX003 (ip), vehicle: other 120 % of control | endpoint: mean survival time, dose: 250.0 mg/kg/injection, schedule: Q01DX001 (ip), vehicle: other 109 % of control | endpoint: mean survival time, dose: 256.0 mg/kg/injection, schedule: Q03HX008 (ip), vehicle: other 108 % of control | endpoint: mean survival time, dose: 256.0 mg/kg/injection, schedule: Q03HX016 (ip), vehicle: other 113 % of control | endpoint: mean survival time, dose: 300.0 mg/kg/injection, schedule: Q01DX001 (ip), vehicle: other 119 % of control and 110 % of control | endpoint: mean survival time, dose: 350.0 mg/kg/injection, schedule: Q01DX001 (ip), vehicle: other 113 % of control | endpoint: mean survival time, dose: 400.0 mg/kg/injection, schedule: Q01DX001 (ip), vehicle: other 117 % of control and 102 % of control | endpoint: median survival time, dose: 21.6 mg/kg/injection, schedule: Q01DX009 (ip), vehicle: saline 100 % of control | endpoint: median survival time, dose: 36.0 mg/kg/injection, schedule: Q01DX009 (ip), vehicle: saline 102 % of control | endpoint: median survival time, dose: 60.0 mg/kg/injection, schedule: Q01DX009 (ip), vehicle: saline 109 % of control | endpoint: median survival time, dose: 100.0 mg/kg/injection, schedule: Q01DX009 (ip), vehicle: saline 110 % of control

C#CC(C)OCCO (stereo not given)
inactive: endpoint: mean survival time, dose: 100.0 mg/kg/injection, schedule: Q04DX003 (ip), vehicle: acetone 104 % of control | endpoint: mean survival time, dose: 200.0 mg/kg/injection, schedule: Q04DX003 (ip), vehicle: acetone 98 % of control | endpoint: mean survival time, dose: 400.0 mg/kg/injection, schedule: Q04DX003 (ip), vehicle: acetone 120 % of control

Cc1ccccc1Sc1cc2ccccc2c2ccccc12
inactive: endpoint: mean survival time, dose: 100.0 mg/kg/injection, schedule: Q04DX003 (ip), vehicle: saline 97 % of control | endpoint: mean survival time, dose: 200.0 mg/kg/injection, schedule: Q04DX003 (ip), vehicle: saline 100 % of control | endpoint: mean survival time, dose: 400.0 mg/kg/injection, schedule: Q04DX003 (ip), vehicle: saline 100 % of control

CCCCCCCCCC/C(C)=N/Nc1ccc([N+](=O)[O-])cc1[N+](=O)[O-]
inactive: endpoint: mean survival time, dose: 100.0 mg/kg/injection, schedule: Q01DX001 (ip), vehicle: saline with Tween-80 94 % of control | endpoint: mean survival time, dose: 200.0 mg/kg/injection, schedule: Q01DX001 (ip), vehicle: saline with Tween-80 89 % of control | endpoint: mean survival time, dose: 400.0 mg/kg/injection, schedule: Q01DX001 (ip), vehicle: saline with Tween-80 93 % of control

Cn1ccc(=Nc2ccc(NC(=O)c3ccc(N=c4ccn(C)c5ccc([N+](=O)[O-])cc45)cc3[N+](=O)[O-])cc2)cc1
inactive: endpoint: mean survival time, dose: 12.5 mg/kg/injection, schedule: Q01DX009 (ip), vehicle: saline with Tween-80 101 % of control | [1] 113 % of control | [2] 119 % of control | [3] 119 % of control | [4] 95 % of control

Nc1ccc(CCCCc2ccc(Cl)c(S(=O)(=O)F)c2)c(Cl)c1
inactive: [3] 95 % of control | [5] 95 % of control | [6] 92 % of control | [7] 101 % of control | [4] 94 % of control | [8] 94 % of control

O=P(OCCCl)(OCCCl)C(Cl)(Cl)Cl
inactive: endpoint: mean survival time, dose: 100.0 mg/kg/injection, schedule: Q01DX001 (ip), vehicle: saline 103 % of control | endpoint: mean survival time, dose: 200.0 mg/kg/injection, schedule: Q01DX001 (ip), vehicle: saline 102 % of control | endpoint: mean survival time, dose: 400.0 mg/kg/injection, schedule: Q01DX001 (ip), vehicle: saline 103 % of control

CC(C)C(=O)Nc1cccc(Cl)c1
inactive: [5] 97 % of control | [7] 97 % of control | [8] 94 % of control

COc1cc(OC)c(NC(=O)NC(C)C)cc1Cl
inactive: [3] 100 % of control | [6] 96 % of control | [4] 100 % of control

CCCCCCCCCCCC1CCCC(C)N1 (stereo not given)
inactive: endpoint: mean survival time, dose: 50.0 mg/kg/injection, schedule: Q04DX002 (ip), vehicle: saline with Tween-80 98 % of control

CCCN(CCC)CC(=O)Nc1c(Cl)cccc1Cl
inactive: endpoint: mean survival time, dose: 50.0 mg/kg/injection, schedule: Q01DX009 (ip), vehicle: saline sonified 101 % of control | endpoint: mean survival time, dose: 100.0 mg/kg/injection, schedule: Q01DX009 (ip), vehicle: saline sonified 96 % of control | [5] 105 % of control | [7] 105 % of control

CCCC/C=C/C(C)(C)O
inactive: [2] 107 % of control | [3] 103 % of control | [6] 107 % of control

Clc1ccc(OCc2sc3ccc(Cl)cc3c2CN2CCCCC2)cc1
inactive: [1] 100 % of control | [2] 97 % of control | [3] 95 % of control

N#CCCOC1CCCCC1
inactive: [5] 98 % of control | [7] 93 % of control | [8] 93 % of control

CC1CCCCC1NC(=O)Nc1ccccc1 (stereo not given)
inactive: [5] 94 % of control | [7] 92 % of control

O=c1c(Br)cnc2ccccn12
inactive: endpoint: mean survival time, dose: 12.5 mg/kg/injection, schedule: Q01DX001 (ip), vehicle: saline 107 % of control | endpoint: mean survival time, dose: 25.0 mg/kg/injection, schedule: Q01DX001 (ip), vehicle: saline 98 % of control | endpoint: mean survival time, dose: 50.0 mg/kg/injection, schedule: Q01DX001 (ip), vehicle: saline 102 % of control

CC(C)(O)C(=O)N/N=C/c1ccc(Cl)cc1
inactive: [3] 90 % of control | [6] 90 % of control

CCC(=O)Nc1cccc(OS(=O)(=O)N(C)C)c1
inactive: [7] 97 % of control | [8] 94 % of control

Cc1ccc(C(=O)CCC(=O)O)c(C)c1
inactive: [3] 100 % of control | [6] 105 % of control | [4] 98 % of control

Cc1ccccc1N=C(N)Nc1ccccc1C
inactive: endpoint: mean survival time, dose: 10.0 mg/kg/injection, schedule: Q04DX003 (ip), vehicle: saline with Tween-80 98 % of control

C=CCCCCCCCCC(=O)NCC1CC1
inactive: [3] 94 % of control | [6] 100 % of control | [4] 86 % of control

O=[N+]([O-])c1cc(Cl)ccc1NC(Nc1ccc(Cl)cc1[N+](=O)[O-])C(Cl)(Cl)Cl
inactive: [3] 101 % of control | [6] 106 % of control | [4] 101 % of control

O=C(O)c1ccsc1
inactive: endpoint: mean survival time, dose: 37.5 mg/kg/injection, schedule: Q04DX003 (ip), vehicle: saline with Tween-80 97 % of control | endpoint: mean survival time, dose: 75.0 mg/kg/injection, schedule: Q04DX003 (ip), vehicle: saline with Tween-80 97 % of control
